{"source": "patent US4307112A", "about": "“9-Deoxy-9A-methylene isosteres of PGI2 and process for their preparation” (Farmitalia Carlo Erba S.p.A., priority 1978, dated 1981)", "key": {"platelet aggregation": {"system": "platelet aggregation", "test": "in vitro inhibitory effect on platelet aggregation induced by 10 μM ADP in platelet rich plasma", "type": "cell-based", "settings": "for IC50: read-out: in vitro antiaggregant effect IC50 (50% platelet aggregation inhibiting concentration)", "source_text": "IC50 = 50% platelet aggregation inhibiting concentration."}, "anaesthetized rat": {"system": "anaesthetized rat", "test": "hypotensive effect on the anaesthetized rat", "type": "in vivo", "settings": "PGI2 = 100"}, "[1]": {"test": "antiulcerogenic activity compared with PGI2 at equi-active antiaggregant doses", "type": "in vivo"}, "hamster": {"system": "hamster", "test": "in vitro luteolytic activity in the hamster compared with PGI2 at equally active antiaggregant doses"}, "[2]": {"settings": "product of reaction of PGI2 with acid; cited from earlier work"}, "[3]": {"settings": "acid; enol ether; listed as natural prostacyclin; cited from earlier work"}, "gastric mucous membrane": {"system": "gastric mucous membrane", "settings": "ulcers induced by e.g. acetyl salicylic acid and indomethacin; test animals, e.g. the rat; cited from earlier work"}, "uterus [4]": {"system": "uterus", "settings": "person; cited from earlier work"}, "blood platelet": {"system": "blood platelet", "settings": "infused in man; cited from earlier work"}, "test animals": {"system": "test animals", "settings": "cited from earlier work"}, "asthmatic patients": {"system": "asthmatic patients", "settings": "inhaled; cited from earlier work"}, "man": {"system": "man", "settings": "infused in man; cited from earlier work"}, "uterus [5]": {"system": "uterus", "settings": "monkey; cited from earlier work"}, "[6]": {"settings": "10 μM ADP, platelet rich plasma"}}, "note": "Entries after “also recorded” stand apart in the source; their conditions may differ. Where two headings read alike, the source gives them in different places."}
{"molecule": "CCCCC[C@H](O)/C=C/[C@@H]1[C@H]2C/C(=C/CCCC(=O)O)C[C@H]2C[C@H]1O", "note": "[(2), 5t,13t-11α,15S-dihydroxy-9a-deoxy-9a-methylene-prostacycla-5,13-dienoic acid]", "values": [{"measurement": "IC50", "setting": "platelet aggregation; Platelet", "value": 0.025, "unit": "mg/L"}, {"measurement": "hypotensive effect potency ratio", "setting": "anaesthetized rat", "value": 1.15}]}
{"molecule": "dl-5,13t-11α,15S-dihydroxy-9a-deoxy-7-nor-methylene-prostacycla-5,13-dienoic acid", "values": [{"measurement": "antiulcerogenic activity relative to PGI2", "setting": "[1]", "value": "ten times greater"}]}
{"molecule": "5t,13t-11α,15S-dihydroxy-9a-deoxy-9a,7a-homo-dimethylene-prostacycla- 5,13-dienoic acid [(3)]", "values": [{"measurement": "in vitro antiaggregant effect IC50 (50% platelet aggregation inhibiting concentration)", "setting": "platelet aggregation; [6]", "value": "20 ηg/ml"}, {"measurement": "hypotensive effect potency ratio", "setting": "anaesthetized rat", "value": 0.25}]}
{"molecule": "dl-5,13t-11α,15S-dihydroxy-9a-deoxy-9a,9b-dimethylene-17-cyclohexyl- 18,19,20-trinor-prostacycla-5,13-dienoic acid", "values": [{"measurement": "in vitro luteolytic activity relative to PGI2", "setting": "hamster", "value": 5, "unit": "times greater"}]}
{"molecule": "CCCCC[C@H](O)/C=C/[C@@H]1[C@@H](CC(=O)CCCCC(=O)O)[C@@H](O)C[C@H]1O", "note": "[6-keto-PGF1α]", "values": [{"measurement": "biological activity characteristic of natural prostacyclin", "setting": "[2]", "value": "almost none of the biological activity"}]}
{"molecule": "5c,13t-11α,15S-dihydroxy-9a-deoxy-9a,7a-homo-dimethylene-16-phenoxy- 17,18,19,20-tetranor,prostacycla-5,13-dienoic acid", "values": [{"measurement": "in vitro luteolytic activity relative to PGI2", "setting": "hamster", "value": 8, "unit": "times greater"}]}
{"molecule": "CCCCC[C@H](O)/C=C/[C@@H]1[C@H]2C/C(=C/CCCC(=O)O)O[C@H]2C[C@H]1O", "note": "[(1), 6,9α-oxide-11α,15(S)-dihydroxy-prosta-5(Z),13(E)-dienoic acid]", "values": [{"measurement": "IC50", "setting": "platelet aggregation; [6]", "value": 0.001, "unit": "mg/L"}, {"measurement": "chemical stability of natural prostacyclin", "setting": "[3]", "value": "extremely acid sensitive; also recorded: marked chemical instability"}, {"measurement": "protection of gastric mucous membrane from ulcers", "setting": "gastric mucous membrane", "value": "able to protect the gastric mucous membrane from ulcers"}, {"measurement": "uterus stimulant action", "setting": "uterus [4]", "value": "uterus stimulant action"}, {"measurement": "blood platelet anti-aggregant and disaggregant properties", "setting": "blood platelet", "value": "blood platelet anti-aggregant and disaggregant properties"}, {"measurement": "luteolytic activity", "setting": "test animals", "value": "luteolytic activity"}, {"measurement": "prevention of bronchoconstriction", "setting": "asthmatic patients", "value": "prevents aspecifically induced (e.g. by nebulized water or by effort) bronchocostriction"}, {"measurement": "hypotensive and vasodilator activity", "setting": "man", "value": "hypotensive and vasodilator activity"}, {"measurement": "hypotensive effect potency ratio", "setting": "anaesthetized rat", "value": 100}, {"measurement": "uterus stimulant action", "setting": "uterus [5]", "value": "uterus stimulant action"}]}
